This is an account of results in patent EP4813463A2, “TYK2 INHIBITORS AND COMPOSITIONS AND METHODS THEREOF” (Lynk Pharmaceuticals Co. Ltd., priority 2023, dated 2024).

One assay concerns the target T1, TYK2-JH2 domain (Homo sapiens, UniProt P29597).
T1 construct: JAK1-JH2 domain or TYK2-JH2 domain enzyme in assay buffer
The experiment in a line: Binding activity test for JH2 domain of TYK2 (Tb-antibody/tracer FRET). The settings on record: JH2 domain enzyme; 60 min at 25°C, then 4°C overnight; read-out: TYK2 JH2 Binding IC50. The method, then:
Binding Activity test for JH2 domain of JAK1 and TYK2 […] Add 8μL/well in echo source plate, echo will add 75nL/well with 3-fold serial dilution for 11 points in assay plate. 75nL DMSO for high control and low control. […] For low control, add 5μL/well assay buffer. And then spin down at 1000rpm and centrifuge for 30 seconds. After enzyme system prepared, add 5μL of Tb-antibody solution into each well of assay plate. Spin down at 1000 rpm and centrifuge for 30sec. After Tb-antibody added, also add 5μL of tracer into the assay plate. Spin down at 1000rpm and centrifuge for 30sec. Incubate for […] at 25°C firstly and then continue to incubate the plate at 4°C overnight. Read by envision in FRET mode. The Luminescence value was recorded by a multi-label reader Envision (PerkinElmer). […] Table 2. IC50 on JH2 domain activity (nM)

In assay [1] the test system is Ba/F3-FL-TYK2-P760L cells. The experiment in a line: Anti-proliferative assay in engineered Ba/F3 cells (Cell-Titer Glo, 72 h). Type of assay: cell-based. Conditions: 72 h compound treatment, concentration that causes 50% growth inhibition, read-out: Baf3-FL-T2P760L. The method, then:
Dimerization domain of Tel protein fused with JAK kinase domain was permanently transduced into Ba/F3 cells, whose proliferation is dependent on JAK activity in the absence of IL-3 induction. These engineered Ba/F3-FL-TYK2-P760L cells were used to monitor JAK inhibitory activities of the compounds in the cellular. Ba/F3 cells were cultured in RPMI-1640 (Corning) containing 10% fetal bovine serum. Cells were seeded at 2000/well of white flat bottom 96-well plates. The well containing medium only was used as background control. After 24h growth, cells were treated with compounds. The test compounds were dissolved in DMSO to a stock concentration of 20 mM. 3-fold serially diluted compounds for 9 concentrations with top concentration of 20 µM was added into the each well. The final DMSO concentration was 0.1%. The cells continued to grow at 37°C in 5% CO2 for 72 h after compound treatment. The viability was measured by cellular ATP determination using the Cell-Titer Glo luciferase reagent (Promega). The Luminescence value was recorded by a multi-label reader Envision (PerkinElmer). Inhibition Rate was calculated relative to vehicle (DMSO) treated control wells using following formula: % Inhibition = 100−(RLU_compound−RLU_blank)/(RLU_control−RLU_blank) × 100% [formula] wherein • RLU_compound = the relative light unit of cells treated with test compounds • RLU_blank = the relative light unit of medium with DMSO only • RLU_control = the relative light unit of cells treated with DMSO only
Table 4. Ba/F3-FL-TYK2-P760L Cells IC50 Values of Exemplary Compounds

Read-outs that look alike come from different tables or passages of the source.

T1 sequence (P29597 589-875 limits assumed): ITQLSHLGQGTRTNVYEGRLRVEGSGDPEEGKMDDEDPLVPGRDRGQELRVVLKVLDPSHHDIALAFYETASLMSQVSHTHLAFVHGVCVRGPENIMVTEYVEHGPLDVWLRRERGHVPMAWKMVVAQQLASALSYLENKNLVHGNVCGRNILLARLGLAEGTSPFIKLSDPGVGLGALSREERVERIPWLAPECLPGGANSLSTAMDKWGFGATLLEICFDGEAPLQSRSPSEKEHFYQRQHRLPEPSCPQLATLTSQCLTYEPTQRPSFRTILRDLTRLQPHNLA

`[2H]C([2H])([2H])NC(=O)c1cnc(NC(=O)C2CC2)cc1Nc1nn(CC)c2ccc(C(O)C(F)(F)F)c(OC)c12` (single isomer, unassigned) [Example 71B, (R*)-6-(cyclopropanecarboxamido)-4-((1-ethyl-4-methoxy-5-(2,2,2-trifluoro-1-hydroxyethyl)-1H-indazol-3-yl)amino)-N-(methyl-d3)nicotinamide]: the results for the IC50 (on TYK2-JH2 domain; in assay [1]) were 0.25 nM and 17.9 nM, respectively.
`COC(=O)c1cnc(NC(=O)C2CC2)cc1Nc1nn(C)c2ccc(C(OC)C(C)(F)F)c(OC)c12` (single isomer, unassigned) [Example 115A, Methyl (S*)-6-(cyclopropanecarboxamido)-4-((5-(2,2-difluoro-1-methoxypropyl)-4-methoxy-1-methyl-1H-indazol-3-yl)amino)nicotinate]: the IC50 on TYK2-JH2 domain was 0.119 nM; in assay [1] (Mus musculus, BaF3, 72 h), 9.83 nM.
In the case of `[2H]C([2H])([2H])OC(c1ccc2c(c(Nc3cc(NC(=O)C4CC4)ncc3C(=O)OC)nn2CCOC)c1OC)C(F)(F)F` (single isomer, unassigned) [Example 157A, Methyl (S*)-6-(cyclopropanecarboxamido)-4-((4-methoxy-1-(2-methoxyethyl)-5-(2,2,2-trifluoro-1-methoxyethyl)-1H-indazol-3-yl)amino)nicotinate], the IC50 on TYK2-JH2 domain stood at 0.095 nM; in assay [1], 2.51 nM.
The corresponding values for `CCC(F)(F)c1cnc(NC(=O)C2CC2)cc1Nc1nn(C)c2ccc(C(O)C(F)(F)F)c(OC)c12` (single isomer, unassigned) [Example 193B, (R*)-N-(5-(1,1-Difluoropropyl)-4-((4-methoxy-1-methyl-5-(2,2,2-trifluoro-1-hydroxyethyl)-1H-indazol-3-yl)amino)pyridin-2-yl)cyclopropanecarboxamide] are 1.18 nM and 45 nM.
Regarding `[2H]C([2H])([2H])NC(=O)c1cnc(NC(=O)C2CC2)cc1Nc1nn(C)c2ccc([C@@H](OC)C(F)(F)F)c(OC)c12` [Example 46B, (R)-6-(cyclopropanecarboxamido)-4-((4-methoxy-1-methyl-5-(2,2,2-trifluoro-1-methoxyethyl)-1H-indazol-3-yl)amino)-N-(methyl-d3)nicotinamide], the IC50 worked out at 0.18 nM on TYK2-JH2 domain and 11.2 nM in assay [1] (Mus musculus, BaF3, 72 h).
Turning to `COC(=O)c1cnc(NC(=O)C2CC2)cc1Nc1cccc(-c2cnn(C)n2)c1OC` [Example 63, Methyl 6-(cyclopropanecarboxamido)-4-((2-methoxy-3-(2-methyl-2H-1,2,3-triazol-4-yl)phenyl)amino)nicotinate], the IC50 at TYK2-JH2 domain turned out to be 0.285 nM; in assay [1] (Mus musculus, BaF3, 72 h), 48.4 nM.
The corresponding values for `[2H]C([2H])([2H])NC(=O)c1cnc(NC(=O)C2CC2)cc1Nc1csc2ccc(C(OC)C(F)(F)F)c(OC)c12` (centres unmarked) [Example 72, 6-(Cyclopropanecarboxamido)-4-((4-methoxy-5-(2,2,2-trifluoro-1-methoxyethyl)benzo[b]thiophen-3-yl)amino)-N-(methyl-d3)nicotinamide] are 0.14 nM and 2.65 nM.
Consider `COC(=O)c1cnc(NC(=O)C2CC2)cc1Nc1c2c(OC)c(C(C)C(F)(F)F)ccc2nn1C` (centres unmarked) [Example 124, Methyl 6-(cyclopropanecarboxamido)-4-((4-methoxy-2-methyl-5-(1,1,1-trifluoropropan-2-yl)-2H-indazol-3-yl)amino)nicotinate], for which the IC50 at TYK2-JH2 domain is 90.3 nM.
Consider `COC(=O)c1cnc(NC(=O)C2CC2)cc1Nc1nn(C)c2ccc(C#N)c(OC)c12` [Example 126, Methyl 4-((5-cyano-4-methoxy-1-methyl-1H-indazol-3-yl)amino)-6-(cyclopropanecarboxamido)nicotinate], for which the IC50 on TYK2-JH2 domain turned out to be 1.79 nM.
Still for that read-out and setting: in the case of `COC(=O)c1cnc(NC(=O)C2CC2)cc1Nc1ccn2ncc(C(OC)C(F)(F)F)c2c1OC` (centres unmarked) [Example 131, Methyl 6-(cyclopropanecarboxamido)-4-((4-methoxy-3-(2,2,2-trifluoro-1-methoxyethyl)pyrazolo[1,5-a]pyridin-5-yl)amino)nicotinate] it was 12.7 nM; in that of `COC(=O)c1cnc(NC(=O)C2CC2)cc1Nc1nn(CC#N)c2ccc(C(OC)C(F)(F)F)c(OC)c12` (centres unmarked) [Example 134, Methyl 4-((1-(cyanomethyl)-4-methoxy-5-(2,2,2-trifluoro-1-methoxyethyl)-1H-indazol-3-yl)amino)-6-(cyclopropanecarboxamido)nicotinate], 1.52 nM.
On the same count and under the same terms, in the case of `COC(=O)c1cnc(NC(=O)C2CC2)cc1Nc1nn(C)c2cnc(C(OC)C(F)(F)F)c(OC)c12` (centres unmarked) [Example 138, Methyl 6-(cyclopropanecarbonylamino)-4-[[4-methoxy-1-methyl-5-(2,2,2-trifluoro-1-methoxy-ethyl)pyrazolo[3,4-c]pyridin-3-yl]amino]pyridine-3-carboxylate] it was 1.22 nM; in that of `CCC(O)c1cnc(NC(=O)C2CC2)cc1Nc1nn(C)c2ccc([C@H](OC)C(F)(F)F)c(OC)c12` (stereo partly drawn) [Example 143, N-(5-(1-hydroxypropyl)-4-((4-methoxy-1-methyl-5-((S)-2,2,2-trifluoro-1-methoxyethyl)-1H-indazol-3-yl)amino)pyridin-2-yl)cyclopropanecarboxamide], 34.7 nM; in that of `CCC(F)c1cnc(NC(=O)C2CC2)cc1Nc1nn(C)c2ccc([C@H](OC)C(F)(F)F)c(OC)c12` (stereo partly drawn) [Example 144, N-(5-(1-fluoropropyl)-4-((4-methoxy-1-methyl-5-((S)-2,2,2-trifluoro-1-methoxyethyl)-1H-indazol-3-yl)amino)pyridin-2-yl)cyclopropanecarboxamide], 42.1 nM.
Same read-out and setting: next, `COC(=O)c1cnc(NC(=O)C2CC2)cc1Nc1nn(C)c2cccc(OC)c12` [Example 146, Methyl 6-(cyclopropanecarboxamido)-4-((4-methoxy-1-methyl-1H-indazol-3-yl)amino)nicotinate]: 9.8 nM; `COC(=O)c1cnc(NC(=O)C2CC2)cc1Nc1nn(C)c2ccc(C(OC)C(F)(F)F)c(O)c12` (centres unmarked) [Example 149, Methyl 6-(cyclopropanecarboxamido)-4-((4-hydroxy-1-methyl-5-(2,2,2-trifluoro-1-methoxyethyl)-1H-indazol-3-yl)amino)nicotinate]: 0.747 nM.
With `[2H]C([2H])([2H])CC(=O)c1cnc(NC(=O)C2CC2)cc1Nc1ncc2cnn(CC(C)(F)F)c2c1OC` [Example 155, N-(4-((1-(2,2-difluoropropyl)-7-methoxy-1H-pyrazolo[4,3-c]pyridin-6-yl)amino)-5-(propanoyl-3,3,3-d3)pyridin-2-yl)cyclopropanecarboxamide], the IC50 at TYK2-JH2 domain is 0.891 nM.
In the case of `COC(=O)c1cnc(NC(=O)C2CC2)cc1Nc1nn(C)c2ccc([C@H](OCOP(=O)(O)O)C(F)(F)F)c(OC)c12` [Example 170, Sodium (S)-(1-(3-((2-(cyclopropanecarboxamido)-5-(methoxycarbonyl)pyridin-4-yl)amino)-4-methoxy-1-methyl-1H-indazol-5-yl)-2,2,2-trifluoroethoxy)methyl phosphate], the IC50 at TYK2-JH2 domain was determined as 0.074 nM.
As for `CCC(F)(F)c1cnc(NC(=O)C2CC2)cc1Nc1nc2ccc(N3CC(OC)C3)cn2n1` [Example 183, N-(5-(1,1-Difluoropropyl)-4-((6-(3-methoxyazetidin-1-yl)-[1,2,4]triazolo[1,5-a]pyridin-2-yl)amino)pyridin-2-yl)cyclopropanecarboxamide], the IC50 in assay [1] (Mus musculus, BaF3, 72 h) came out at 14.5 nM.
